From patent US20140335050A1, “METHODS, COMPOSITIONS, AND KITS FOR THE TREATMENT OF CANCER” (The General Hospital Corporation, priority 2011, published 2014)

Test system: MM96L+ melanoma cell line
Test: Intracellular antibody staining and flow cytometry (Melan-A/MART-1, gp100/HMB45)
Type: cell-based, human
Details: MM96L+ (BRAF M/WT, NRAS WT); 3 days; 17-AEP 1.00, CCT018159 5.00, PU-H71 0.30 μg/ml
Method: Several cell lines expressing varying native-sequences, (wild-type (WT) or mutant (M) alleles of these genes were evaluated), to determine if there is a relationship between levels of Hsp90 inhibitor-mediated antigen up-regulation and BRAF and NRAS mutational status. Mutant status of the NRAS and BRAF loci were determined previously.
Cells were plated at a density of 1×10^5 in 1 ml of medium in a 24-well plate and cultured for varying times as indicated in results. Typically, 3 days of culture in the presence of Hsp90 inhibitors was optimal for the functional studies performed. After incubation, cells were collected by trypsinization and then evaluated by flow cytometry.
Intracellular staining and flow cytometric analyses of cytoplasmic Melan-A/MART-1, and gp100 expression were performed as described previously. Cells were fixed with 1% formaldehyde, permeabilized with 0.1% saponin, stained with monoclonal antibodies to melanocyte antigens. Antibodies were obtained with specificity for: Melan-A/MART-1 from Vector Labs (Burlingame, Calif.); gp100/HMB45 from DakoCytomation (Carpinteria, Calif.) and then visualized with goat anti-mouse FITC-conjugated secondary antibody from Invitrogen (Frederick, Md.). The level of EGFP was determined by flow cytometry of unfixed cells washed and resuspended in 1×PBS. […]

## CCc1cc(-c2n[nH]c(C)c2-c2ccc3c(c2)OCCO3)c(O)cc1O [CCT018159]
  HMB45, level of induction relative to untreated control cells: 1.81
  MART-1, level of induction relative to untreated control cells: 3.04
